Several values for one entry are separate records, joined by “and”; a condition that tells them apart may be missing. Equal values may be shown once.
Columns and labels:
FIH = FIH (Homo sapiens, UniProt Q9NWT6); test: FIH steady-state kinetic parameters (SPE-MS, initial hydroxylation rates); format: biochemical; design: slope of initial reaction rate: unit not given here
Method: Final 2OG/2OG derivative concentrations are given in Supplementary Figs. 5 and 6. Reactions were monitored with a rate of ~1 sample/40 s using the same SPE-MS configuration as described above. Data were analyzed as described above and the slopes of the initial reaction rates (Supplementary Figs. 5 and 6) fitted to a Michaelis–Menten plot using non-linear regression (GraphPad Prism 5). […]
determine kinetic parameters for 2OG derivatives (continues on the following page). Maximum velocities (vapp ) and Michaelis constants (Kapp) of FIH were determined in independent triplicates for 2OG and the 2OG […]
SPE-MS as described in the Methods section. […]
acid (LAA), and 20 μM ammonium iron(II) sulfate hexahydrate (FAS, (NH4)2Fe(SO4)2·6H2O) in buffer (50 mM […]
Tris, 50 mM NaCl, pH 7.5, 20° C). […]
data are provided as a Source Data file. […]
concentrations of 2OG; (b) hydroxylation rates used to determine kinetic parameters of FIH for 2OG; (c) time […]
3-methyl-2OG (1); (d) hydroxylation rates used to determine kinetic parameters of FIH for 1; (e) time course of […]
2OG (12); (f) hydroxylation rates used to determine kinetic parameters of FIH for 12; (g) time course of the FIH- […]
(h) hydroxylation rates used to determine kinetic parameters of FIH for 14; (i) time course of the FIH-catalyzed […]
(carboxycarbonyl)cyclopentane-1-carboxylic acid (22); (j) hydroxylation rates used to determine kinetic parameters of FIH for 22.
Supplementary Figure 6. Hydroxylation rates of FIH-catalyzed CA1-20 hydroxylations used to determine kinetic parameters for 2OG derivatives (continues on the following page). Maximum velocities (vapp ) and […]
ammonium iron(II) sulfate hexahydrate (FAS, (NH4)2Fe(SO4)2·6H2O) in buffer (50 mM Tris, 50 mM NaCl, pH […]
Source data are provided as a Source […]
of 2OG; (b) hydroxylation rates used to determine kinetic parameters of FIH for 2OG; (c) time course of the FIH-catalyzed hydroxylation reaction of the CA1-20 peptide for the shown concentrations of 3-methyl-2OG (1); (d) hydroxylation rates used to determine kinetic parameters of FIH for 1; (e) time course of the FIH -catalyzed hydroxylation reaction of the CA 1-20 peptide for the shown concentrations of 4 -methyl-2OG (12); (f) hydroxylation rates used to determine kinetic parameters of FIH for 12; (g) time course of the FIH-catalyzed hydroxylation reaction of the CA1-20 peptide for the shown concentrations of 4-ethyl-2OG (14); (h) hydroxylation rates used to determine kinetic parameters of FIH for 14; (i) time course of the FIH-catalyzed hydroxylation reaction of the CA1-20 peptide for the shown concentrations of 3-(carboxycarbonyl)cyclopentane-1-carboxylic acid (22); (j) hydroxylation rates used to determine kinetic parameters of FIH for 22.

AspH = biological target: T1, AspH (Homo sapiens, UniProt Q12797); test: Competition assay in a single reaction vessel, AspH-catalyzed hydroxylation (SPE-MS); format: biochemical
T1 construct: the tetratricopeptide repeat domain (His6-AspH315-758), was produced and purified as previously reported; made in house
T1 sequence (Q12797 315-758): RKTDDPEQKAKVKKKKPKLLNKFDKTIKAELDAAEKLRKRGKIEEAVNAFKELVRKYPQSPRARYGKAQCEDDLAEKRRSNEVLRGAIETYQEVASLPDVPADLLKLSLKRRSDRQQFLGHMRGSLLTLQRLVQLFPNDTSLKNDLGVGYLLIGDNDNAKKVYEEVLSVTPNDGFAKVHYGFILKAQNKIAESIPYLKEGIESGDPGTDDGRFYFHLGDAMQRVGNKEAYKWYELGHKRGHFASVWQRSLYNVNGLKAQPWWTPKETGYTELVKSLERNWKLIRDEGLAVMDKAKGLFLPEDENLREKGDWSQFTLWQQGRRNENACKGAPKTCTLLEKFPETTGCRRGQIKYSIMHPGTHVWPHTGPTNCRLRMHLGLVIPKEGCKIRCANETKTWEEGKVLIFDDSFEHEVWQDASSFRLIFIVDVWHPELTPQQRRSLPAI
Method: Mean of three independent runs (n = 3; mean ± SD). […] Cosubstrates: a 20 μM 2OG; b 20 μM 2OG; c 20 μM 1; d 20 μM 12; e 20 μM 12 and 100 μM 2OG; f 100 μM 14. Source data are provided as a Source Data file.
Mean of three independent runs (n = 3; mean ± SD). […] Source data are provided as a Source Data file.
Peptide turnover was monitored by SPE-MS using the same instrument configuration (with the exception that the peptides were eluted from the SPE cartridge with 0.1%v/v aqueous formic acid in 80/20 v/v acetonitrile/water) as described above.
FIH and AspH-catalyzed peptide hydroxylations were analyzed simultaneously using SPE-MS as described in the
Methods section; competition experiments were performed in the same reaction vessel using equimolar 2OG
oxygenase and substrate concentrations. […]
Source data are provided as a Source Data file.
FIH and AspH-catalyzed peptide hydroxylations were analyzed simultaneously using SPE-
MS as described in the Methods section; competition experiments were performed in the same reaction vessel
using equimolar 2OG oxygenase and substrate concentrations. […]
2OG, 100 μM 14. Source data are provided as a Source Data file.

Sequence of FIH (Q9NWT6 whole entry): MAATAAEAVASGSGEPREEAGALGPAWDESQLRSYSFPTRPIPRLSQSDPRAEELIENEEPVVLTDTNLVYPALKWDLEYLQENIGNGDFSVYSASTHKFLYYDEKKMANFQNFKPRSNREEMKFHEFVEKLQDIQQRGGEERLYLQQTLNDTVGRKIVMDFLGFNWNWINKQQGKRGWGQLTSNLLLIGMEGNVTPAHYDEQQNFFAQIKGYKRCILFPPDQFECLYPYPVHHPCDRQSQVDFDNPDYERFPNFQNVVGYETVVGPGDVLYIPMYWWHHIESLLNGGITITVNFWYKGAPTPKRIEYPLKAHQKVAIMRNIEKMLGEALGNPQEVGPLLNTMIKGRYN

SPE-MS determined concentration of hydroxylated HIF-1a peptide (FIH; 0.5 uM compound 14, time 2.797 min): 0.04266 µM and 0.0716 µM and 0.08092 µM
SPE-MS determined concentration of hydroxylated HIF-1a peptide (FIH; 1 uM compound 14, time 2.797 min): 0.09973 µM and 0.05746 µM and 0.08941 µM
SPE-MS determined concentration of hydroxylated HIF-1a peptide (FIH; 1 uM compound 14, time 3.49667 min): 0.115 µM and 0.07268 µM and 0.1031 µM
SPE-MS determined concentration of hydroxylated HIF-1a peptide (FIH; 1 uM compound 14, time 4.19733 min): 0.119 µM
SPE-MS determined concentration of hydroxylated HIF-1a peptide (FIH; 2 uM compound 14, time 2.098 min): 0.07647 µM and 0.1051 µM and 0.08874 µM
SPE-MS determined concentration of hydroxylated HIF-1a peptide (FIH; 2 uM compound 14, time 2.797 min): 0.08846 µM and 0.1193 µM and 0.1194 µM
SPE-MS determined concentration of hydroxylated HIF-1a peptide (FIH; 2 uM compound 14, time 3.49667 min): 0.1173 µM and 0.1355 µM and 0.125 µM
SPE-MS determined concentration of hydroxylated HIF-1a peptide (FIH; 2 uM compound 14, time 4.19733 min): 0.1246 µM and 0.1503 µM and 0.1494 µM
SPE-MS determined concentration of hydroxylated HIF-1a peptide (FIH; 4 uM compound 14, time 0.699833 min): 0.04117 µM and 0.06069 µM and 0.06774 µM
SPE-MS determined concentration of hydroxylated HIF-1a peptide (FIH; 4 uM compound 14, time 2.098 min): 0.09804 µM and 0.1128 µM and 0.1303 µM
SPE-MS determined concentration of hydroxylated HIF-1a peptide (FIH; 4 uM compound 14, time 2.797 min): 0.119 µM and 0.1335 µM and 0.1587 µM
SPE-MS determined concentration of hydroxylated HIF-1a peptide (FIH; 4 uM compound 14, time 3.49667 min): 0.1494 µM and 0.1576 µM and 0.1863 µM
SPE-MS determined concentration of hydroxylated HIF-1a peptide (FIH; 4 uM compound 14, time 4.19733 min): 0.1634 µM and 0.187 µM and 0.2105 µM
SPE-MS determined concentration of hydroxylated HIF-1a peptide (FIH; 8 uM compound 14, time 0.699833 min): 0.05237 µM and 0.05984 µM and 0.05853 µM
SPE-MS determined concentration of hydroxylated HIF-1a peptide (FIH; 8 uM compound 14, time 2.098 min): 0.1084 µM and 0.1284 µM and 0.1223 µM
SPE-MS determined concentration of hydroxylated HIF-1a peptide (FIH; 8 uM compound 14, time 2.797 min): 0.1357 µM and 0.1566 µM and 0.1624 µM
SPE-MS determined concentration of hydroxylated HIF-1a peptide (FIH; 8 uM compound 14, time 3.49667 min): 0.1592 µM and 0.1706 µM and 0.1851 µM
SPE-MS determined concentration of hydroxylated HIF-1a peptide (FIH; 8 uM compound 14, time 4.19733 min): 0.1873 µM and 0.2041 µM and 0.2053 µM
SPE-MS determined concentration of hydroxylated HIF-1a peptide (FIH; 16 uM compound 14, time 0.699833 min): 0.04301 µM and 0.07322 µM and 0.06274 µM
SPE-MS determined concentration of hydroxylated HIF-1a peptide (FIH; 16 uM compound 14, time 2.098 min): 0.1098 µM and 0.1258 µM and 0.1325 µM
SPE-MS determined concentration of hydroxylated HIF-1a peptide (FIH; 16 uM compound 14, time 2.797 min): 0.1413 µM and 0.1532 µM and 0.1654 µM
SPE-MS determined concentration of hydroxylated HIF-1a peptide (FIH; 16 uM compound 14, time 3.49667 min): 0.1747 µM and 0.1882 µM and 0.2002 µM
SPE-MS determined concentration of hydroxylated HIF-1a peptide (FIH; 16 uM compound 14, time 4.19733 min): 0.1989 µM and 0.216 µM and 0.231 µM
SPE-MS determined concentration of hydroxylated HIF-1a peptide (FIH; 32 uM compound 14, time 0.699833 min): 0.0551 µM and 0.06691 µM and 0.07521 µM
SPE-MS determined concentration of hydroxylated HIF-1a peptide (FIH; 32 uM compound 14, time 2.098 min): 0.1143 µM and 0.1231 µM and 0.1358 µM
SPE-MS determined concentration of hydroxylated HIF-1a peptide (FIH; 32 uM compound 14, time 2.797 min): 0.1568 µM and 0.1531 µM and 0.1667 µM
SPE-MS determined concentration of hydroxylated HIF-1a peptide (FIH; 32 uM compound 14, time 3.49667 min): 0.1879 µM and 0.1751 µM and 0.1995 µM
SPE-MS determined concentration of hydroxylated HIF-1a peptide (FIH; 32 uM compound 14, time 4.19733 min): 0.214 µM and 0.2049 µM and 0.2308 µM
slope of initial reaction rate (FIH; CA1-20, 1 μM 14): 0.002761 and 0.002095 and 0.002277
slope of initial reaction rate (FIH; CA1-20, 2 μM 14): 0.00488 and 0.004776 and 0.004739
slope of initial reaction rate (FIH; CA1-20, 4 μM 14): 0.007334 and 0.006606 and 0.007233
slope of initial reaction rate (FIH; CA1-20, 8 μM 14): 0.009175 and 0.0109 and 0.00922
slope of initial reaction rate (FIH; CA1-20, 16 μM 14): 0.01109 and 0.0126 and 0.01075
slope of initial reaction rate (FIH; CA1-20, 32 μM 14): 0.01017 and 0.00931 and 0.01176
slope of initial reaction rate (FIH; HIF-1a788-822, 0.5 μM 14): 0.000241 and 0.000243 and 0.000366
slope of initial reaction rate (FIH; HIF-1a788-822, 1 μM 14): 0.000319 and 0.00043 and 0.000499
slope of initial reaction rate (FIH; HIF-1a788-822, 2 μM 14): 0.000549 and 0.000605 and 0.000685
slope of initial reaction rate (FIH; HIF-1a788-822, 4 μM 14): 0.000653 and 0.000643 and 0.000856
slope of initial reaction rate (FIH; HIF-1a788-822, 8 μM 14): 0.000767 and 0.000839 and 0.000864
slope of initial reaction rate (FIH; HIF-1a788-822, 16 μM 14): 0.00082 and 0.000767 and 0.000893
slope of initial reaction rate (FIH; HIF-1a788-822, 32 μM 14): 0.000874 and 0.000847 and 0.00081
AspH-catalyzed hydroxylation of hFX-EGFD1_86–124-4Ser (AspH; Fig 2f, 100 μM 14, absence of 2OG): not observed
AspH catalysis (AspH; Supplementary Fig 27, tenfold excess of 14 over 100 μM 2OG): entirely suppressed
SMILES: CCC(CC(=O)C(=O)O)C(=O)O (stereo not shown) [compound 14, 4-ethyl-2OG]

Reference: paper PMC8580996, “2-Oxoglutarate derivatives can selectively enhance or inhibit the activity of human oxygenases” (Nature Communications, 2021)
